The values below come from patent US20250312468A1, “ANTI-PROTAC ANTIBODIES AND COMPLEXES” (Merck Patent GmbH, priority 2021, published 2025).

Data set [1] addresses MIC1. Description: SPR binding of PROTACs to immobilized antibody MIC1. As to conditions: binding of PROTACs to MIC1, steady-state model. How it is done: The binding affinities of hit antibodies MIC1 and MIC2 to a diverse set of VH032-based PROTACs (FIGS. 8A-8B) was determined by surface plasmon resonance (SPR) in a Biacore T200 instrument. The running buffer consist of PBS, 0.05% Tween-20, 2% DMSO and temperature and flow rate were set to 30° C. and 30 μL/min, respectively. The assay setup is depicted exemplarily in FIG. 7A. CM5 sensor chips were coated with antibody (=ligand; 2500 RU) using standard EDC/NHS chemistry. PROTACs (=analytes) were serially diluted (1 μM-1.9 nM) in running buffer, injected to the instrument in consecutive runs and were captured by the antibody resulting in an increase of the corresponding SPR response. After the association step (300 s), running buffer was injected for 600 s and the PROTAC dissociated from the antibody leading to signal decrease. After each run, residual bound PROTAC was removed from the immobilized antibody by injection of 10 mM glycine/HCl, pH 1.5 for 2×30 s regenerating the antibody for the next association and dissociation cycle. To compensate for matrix effects, the measured SPR response signal was subtracted by the analyte response to an inactivated (EDC/NHS, ethanol amine) reference surface omitting the ligand. Furthermore, a DMSO solvent correction was performed and analyte response was subtracted by the running buffer signal. […]

Data set [2] concerns MDAMB468 cells. Description: CellTiter-Glo cell viability assay (VHH-based PAX). As to conditions: MDAMB468, PROTAC alone. How it is done:
(§1) Several cell viability experiments were performed following the procedure described below: Cells were seeded in different media into white cell culture-treated flat and clear bottom multiwell plates followed by overnight incubation in a humid chamber at 37° C. and 5% CO2. Complexation was performed as described in chapter 7.4.
(§2) The solutions were added to the cells based on the antibody concentration using nanodrop dispension using a Tecan D300e Digital Dispenser and all wells were normalized to the same volume using 0.3% TW20 in PBS pH 7.4 and DMSO to a final solvent concentration of 0.05% DMSO and 0.003% TW20. Incubation was performed at 37° C. at 5% or 10% CO2 dependent on the medium. The assay was developed after 3 days if not otherwise stated using CellTiter-Glo Luminescent Cell Viability Assay as described in the manufacturer's protocol. In brief, the plates were equilibrated to room temperature for 30 minutes. 100 mL CellTiter-Glo Buffer were added to the CellTiter-Glo Substrate Flask and mixed well. 30 μL of the reagent was transferred to each well. After incubation for 3 minutes at room temperature while shaking at 550 rpm, the plate was incubated for another 10 minutes at room temperature. The luminescence was read on an Envision reader from Perkin Elmer. Solvent alone and Bortezomib (1.0E-05 M) served as high control (100% viability) and low control (0% viability), respectively. Raw data were converted into percent cell viability relative to the high and low control, which were set to 100% and 0%, respectively. […] The concentration corresponds to the concentration of PROTACs in the PAX.

The test system of data set [3] is HEPG2 cells. Kind of data set: CellTiter-Glo cell viability assay (VHH-based PAX). The note with it: HEPG2, PROTAC alone. How it is done: as §1, §2
The test system of data set [4] is SKOV3. Kind of data set: CellTiter-Glo cell viability assay (VHH-based PAX). As to conditions: SKOV3, PROTAC alone. How it is done:
as §1, §2

Data set [5] has as its system MCF7. Kind of data set: CellTiter-Glo cell viability assay (VHH-based PAX). The note with it: MCF7, PROTAC alone. How it is done:
as §1, §2

The test system of data set [6] is HCC827. Description: CellTiter-Glo cell viability assay (VHH-based PAX). The note with it: HCC827, PROTAC alone. The method, then: as §1, §2
Data set [7] concerns A431. Description: CellTiter-Glo cell viability assay (VHH-based PAX). The note with it: A431, PROTAC alone. The method, then:
as §1, §2

Data set [8] has as its system MV411 cells. Kind of data set: CellTiter-Glo cell viability assay (VHH-based PAX). Further details: species or system human. The note with it: MV411, PROTAC alone. The method, then:
as §1
The solutions were added to the cells based on the antibody concentration using nanodrop dispension using a Tecan D300e Digital Dispenser and all wells were normalized to the same volume using 0.3% TW20 in PBS pH 7.4 and DMSO to a final solvent concentration of 0.05% DMSO and 0.003% TW20. Incubation was performed at 37° C. at 5% or 10% CO2 dependent on the medium. The assay was developed after 3 days if not otherwise stated using CellTiter-Glo Luminescent Cell Viability Assay as described in the manufacturer's protocol. In brief, the plates were equilibrated to room temperature for 30 minutes. 100 mL CellTiter-Glo Buffer were added to the CellTiter-Glo Substrate Flask and mixed well. 30 μL of the reagent was transferred to each well. After incubation for 3 minutes at room temperature while shaking at 550 rpm, the plate was incubated for another 10 minutes at room temperature. The luminescence was read on an Envision reader from Perkin Elmer. […]

Data set [9] is described as follows: Storage stability of antibody-PROTAC complexes (DLS, SE-HPLC, visible changes). It counts as physicochemical. The note with it: no storage time/temperature printed. How it is done:
Storage stability of antibody-PROTAC complexes was assessed after complexation (6 mg/ml, 650 rpm, 3 h, rt) by incubation in the fridge at 4° C. over 96 h as well as snap-freezing the complexes and storage at −80° C. for 24 h or at −20° C. at 96 h. Subsequently the samples were checked for visible changes, the polydispersity was assessed using DLS measurements and the loading was measured via SE-HPLC (Table 6). Samples with polydispersity up to 15% are considered monodisperse.

For data set [10] the following is noted: mouse, in vivo. How it is done: After shaking/vortexing for 1 min, samples were filtered, (Captiva filtration on polypropylene filter, 0.45 μm pore size) and 120 μL of methanol:water (1:1, v/v) was added to the filtrate and stored at 4° C. until analysis and put in the autosampler before injection. The analysis was carried out on a LC-MS/MS system consisting of an UPLC coupled to a QTRAP 6500+ (Sciex) mass spectrometer. Mobile phase A was water with 0.1% formic acid and mobile phase B was methanol with 0.1% formic acid. […] The chromatography was performed on a Poroshell 120 EC-C18 column, 2.7 μm particles, 3×50 mm, from Agilent Technologies. […] The calibration curve for quantitation was based on standards ranging from 0.5 (Lower Limit of Quantitation) to 10000 (Upper Limit of Quantitation) ng/ml, with 5 calibration points minimum and minimum 75% of calibration standards to be within […] of their nominal values. The total antibody concentration was determined by ligand binding assay (LBA) based on the Meso Scale Diagnostics technology (MSD, LLC., Rockville, MD). […] After a final washing step, 150 μL of 2×MSD Read Buffer T with surfactant (MSD, #R92TC) was added to each well and plates were read on a MESO Quickplex SQ120 plate reader (MSD). […] The lower limit of quantification (LLOQ) was 50 ng/ml.

Molecules are shown by their SMILES.

Turning to `Cc1ncsc1-c1ccc([C@H](C)NC(=O)[C@@H]2C[C@@H](O)CN2C(=O)[C@@H](NC(=O)COCCCOCCNC(=O)C[C@@H]2N=C(c3ccc(Cl)cc3)c3c(sc(C)c3C)-n3c(C)nnc32)C(C)(C)C)cc1` [ARV771], in data set [1], the affinity, expressed as Kd, was 6.5 nM. The concentration for half-maximal inhibition (IC50) was 49 nM in data set [2]; 89 nM in [3]; 32 nM in [4]; 26 nM in data set [5]; 91 nM in data set [6]; 65 nM in [7].

Regarding `Cc1ncsc1-c1ccc(CNC(=O)[C@@H]2C[C@@H](O)CN2C(=O)[C@@H](NC(=O)CCCCCCCCCCNC(=O)c2cc3c(cc2CS(C)(=O)=O)-c2cn(C)c(=O)c4[nH]cc(c24)CN3c2ncc(F)cc2F)C(C)(C)C)cc1` [GNE987], the IC50 in [8] is less than 0.045 nM; in data set [2], 0.41 nM; in [3] it was 2.6 nM; in data set [4] it was 0.61 nM; in [5] it was 0.15 nM; in data set [6] it was 0.77 nM. Moreover, in [7], the midpoint of inhibition, the IC50, lay at 0.34 nM. Besides, the Visible evaluation entry in data set [9] was “precipitation”. The “time after which PROTAC GNE987 concentration fell below LLOQ” value in data set [10] came to 25 h. In data set [10] (iv, 0.4 mg/kg), the “half-life of the PROTAC GNE987” value was determined as 5.8 h.
